Source: ChEMBL document CHEMBL1152764, “Penicilliols A and B, novel inhibitors specific to mammalian Y-family DNA polymerases” (Bioorg Med Chem, 2009)

Target: T1, DNA polymerase iota (Mus musculus, UniProt Q6R3M4)
T1 sequence (Q6R3M4 whole entry): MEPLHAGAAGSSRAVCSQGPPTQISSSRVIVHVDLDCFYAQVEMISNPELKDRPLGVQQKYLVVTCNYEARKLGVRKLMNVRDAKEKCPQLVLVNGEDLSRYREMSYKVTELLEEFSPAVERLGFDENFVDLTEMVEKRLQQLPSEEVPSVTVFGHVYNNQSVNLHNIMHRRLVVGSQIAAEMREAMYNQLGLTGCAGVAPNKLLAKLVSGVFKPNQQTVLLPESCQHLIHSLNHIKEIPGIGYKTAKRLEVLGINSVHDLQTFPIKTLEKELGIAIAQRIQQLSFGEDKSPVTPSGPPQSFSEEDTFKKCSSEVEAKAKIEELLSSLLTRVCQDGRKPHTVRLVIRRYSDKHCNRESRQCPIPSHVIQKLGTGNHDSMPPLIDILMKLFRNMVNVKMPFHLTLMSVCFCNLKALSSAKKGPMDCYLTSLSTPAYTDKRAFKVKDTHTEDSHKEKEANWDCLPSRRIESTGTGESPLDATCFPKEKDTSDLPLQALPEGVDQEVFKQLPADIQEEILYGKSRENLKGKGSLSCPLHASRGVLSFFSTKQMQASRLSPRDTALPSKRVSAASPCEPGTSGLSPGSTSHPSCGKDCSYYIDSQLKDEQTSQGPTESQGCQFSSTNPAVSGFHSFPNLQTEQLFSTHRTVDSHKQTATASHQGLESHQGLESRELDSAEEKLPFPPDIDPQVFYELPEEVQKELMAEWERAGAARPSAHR
Assay: Inhibition of mouse DNA polymerase iota

Row | IC50 | Compound
1 | 19.8 µM | C/C=C/C(=O)C1=C(OC)OC(C)(/C=C/C=C/C(C)O)C1=O (configuration not stated) [PENICILLIOL A]
2 | 32.5 µM | COC1=C(C(=O)CC(C)O)C(=O)C(C)(/C=C/C=C/C(C)O)O1 (configuration not stated) [PENICILLIOL B]
